# Data taken from patent publication US20200171056A1, “SULFONYLUREA COMPOUNDS IN THE TREATMENT OF DISEASE ASSOCIATED WITH UV-INDUCED DAMAGE” (CeMM - Forschungszentrum für Molekulare Medizin GmbH, priority 2017, published 2020).
# Key:
# Format in all cases: cell-based, human
# MUTYH = MUTYH protein levels by immunoblotting; settings: WT HAP1, 0.5 mM for 6 hours, alone or with 10 μM MG132 (FIG. 4A-B)
# Procedure: A. WT HAP1 cells were treated with or without 0.5 mM acetohexamide for 6 hours, then released into compound-free media for the indicated time points and immunoblotted with an anti-MUTYH antibody. ACTIN was used as a loading control. B. WT HAP1 cells were either treated with 0.5 mM acetohexamide alone or with 10 μM of the proteasome inhibitor MG132 for 6 hours and analyzed by immunoblotting using an anti-MUTYH antibody. C. Left panel: colony formation of the WT, ΔXPA or ΔXPA-MUTYH HAP1 cells treated with or without 0.5 mM acetohexamide for 6 hours, followed by 15 J/M^2 UV irradiation and then kept in culture for 10 days. Right panel: Macroscopic colonies were stained with crystal violet and quantified. D. WT, ΔXPA or ΔXPA-MUTYH HAP1 cells were treated with 15 J/M^2 UV or left untreated, then kept in culture for the indicated recovery times and analyzed by dot blot for the presence of CPDs within genomic DNA. E. Number of chromosomal abnormalities per metaphase spread of ΔXPA or ΔXPA-MUTYH HAP1 exposed to different doses of UV irradiation. Data in (E) represented as mean±SEM. F. Survival of WT and ΔMULE HAP1 cells exposed to UV irradiation at different doses and assessed after 3 days, using CellTitre-Glo.
# Cells were lysed in lysis buffer composed of RIPA lysis buffer supplemented with protease inhibitors (Sigma) and phosphatase inhibitors (Sigma, NEB). […]
# ΔXPA cells [1] = assay: Short-term survival after UV irradiation (CellTiter-Glo); settings: 0.5 mM acetohexamide for 6 hours, then UV; survival after 3 days (FIG. 1D)
# Description: (§1) A. Schematic representation of the experimental setup used to perform the high-throughput drug screen, where drugs were used at five-times maximal plasma concentration (CLOUD; CeMM library of unique drugs). B. Bubble plot displaying the drugs used plotted against cell viability. Light grey bubbles indicate wildtype (WT) cells, dark grey bubbles indicate XPA-deficient cells (ΔXPA). […] C. Chemical structure of acetohexamide. D. Dose-response curve of WT and ΔXPA cells treated with or without 0.5 mM acetohexamide for 6 hours, followed by UV irradiation. Survival was assessed after 3 days, using CellTiter-Glo. […] Error bars indicate SEM (n=3). E. Colony formation using the same conditions indicated in (D), where cells were kept in culture for 10 days following UV irradiation, following which they were fixed and stained.
# A-C. Cell viability of ΔXPA cells treated with different concentrations of acetohexamide (aceto), gliclazide (GLC) and glimepiride (GLM) for 6 hours, followed by 10 J/M^2 of UV irradiation. D. Survival of WT and ΔXPA cells treated with or without 50 μM glibenclamide for 6 hours, followed by UV exposure. Survival was assessed after 3 days using CellTitre-Glo. E. Cell viability of ΔXPA cells treated with 10 μM of different derivatives of acetohexamide for 6 hours, followed by UV irradiation with 5 J/M^2.
# For UV irradiation, cells were washed with PBS, trypsinized, counted and distributed in equal number then irradiated with different doses of UV as indicated. Finally, 1,000 cells were re-distributed into 96 well plates. After 72 hours, survival was measured using Cell Titer-Glo (Promega). Cells were irradiated with UVC using the UVP CX-2000 device (254 nm, Fisher Scientific).
# WT and ΔXPA cells = assay: Survival after illudin S treatment; settings: 0.5 mM acetohexamide for 6 hours, then illudin S (FIG. 2A, 7B)
# Procedure: A. Dose-response curve of WT and ΔXPA cells treated with or without 0.5 mM acetohexamide for 6 hours, followed by illudin S treatment. Survival was assessed after 3 days using CellTiter-Glo. B. Colony formation of WT fibroblasts (BJ) and XPA-patient derived fibroblasts (XPA^Δ/Δ) treated with or without 0.5 mM acetohexamide for 6 hours, followed by UV irradiation (as indicated) and then kept in culture for 10 days. C. WT BJ and XPA^Δ/Δ fibroblastoid cells were treated with 0.5 mM acetohexamide for 6 hours, irradiated with 15 J/M^2 and then fixed and immunostained with an anti-cyclobutane pyrimidine dimer (CPD) antibody at the indicated times. Nuclear DNA was counterstained with DAPI. Scale bar, 10 μm. D. Scatter plot displaying the quantification of CPD intensities per nucleus of WT and XPA^Δ/Δ cells in the presence or absence of 0.5 mM acetohexamide, of more than 100 cells. Red lines within each column represent median intensities. A.u.=arbitrary unit.
# A. Dose-response curve of WT and ΔXPA cells treated with or without 0.5 mM acetohexamide for the indicated times, followed by UV irradiation. Survival was assessed after 3 days, using CellTiter-Glo. […] WT and ΔXPA cells treated with or without 0.5 mM acetohexamide for the indicated times, followed by 15 J/M^2 irradiation and analyzed by dot blot for the presence of CPDs in genomic DNA. […] D. Quantification of the intensities of C. […]
# ΔXPA cells [2] = assay: Long-term colony formation assay after UV irradiation; settings: 0.5 mM acetohexamide for 6 hours, then UV; 10 days in culture (FIG. 1E)
# Description: as §1
# Cells were treated with UV at different doses with or without drug pre-treatment and then seeded into 6-well plates, at a density of 1,000 cells/well, in duplicates for 2 weeks until visible colonies were formed. Then, the medium was removed, colonies were washed with PBS and fixed using 3.7% paraformaldehyde (PFA) for 1 hour. Subsequently, the PFA was removed and colonies were stained with 0.1% crystal violet in 5% ethanol solution for 1 hour. Next, the staining solution was removed and the wells were washed, imaged and quantified using CellProfiler.
structure (smiles),measurement,setting,value
CC(=O)c1ccc(S(=O)(=O)NC(=O)NC2CCCCC2)cc1 [acetohexamide],MUTYH protein levels,MUTYH,decrease in MUTYH protein levels in a proteasome dependent manner
same,"UV sensitivity of ΔXPA cells, short-term dose response assay",ΔXPA cells [1],alleviated the UV sensitivity of ΔXPA cells almost to the level of wildtype cells
same,cellular survival following illudin S treatment,WT and ΔXPA cells,could increase cellular survival following illudin S treatment
same,"UV sensitivity of ΔXPA cells, long-term colony formation assay",ΔXPA cells [2],alleviated the UV sensitivity of ΔXPA cells almost to the level of wildtype cells
